Results as given in article PMC2901826, “Intramolecular Modulation of Serine Protease Inhibitor Activity in a Marine Cyanobacterium with Antifeedant Properties” (Marine Drugs, 2010).

How the values were obtained:
[1] = target: T1, porcine pancreatic elastase (Sus scrofa, UniProt P00772); assay: Elastase inhibition assay; format: biochemical; conditions: for IC50: porcine pancreatic elastase, substrate N-succinyl-Ala-Ala-Ala-p-nitroanilide, 15 min pre-incubation, triplicate, read-out: Serine protease inhibitory activity (IC50), Elastase
T1 construct: purchased Elastin Products Company EC134; host or cells: porcine pancreas
Experimental: (§1) Elastase assay was assessed using high-purity porcine pancreatic elastase (Elastin Products Company, EC134, 135 units/mg). The assay buffer used was 1M Tris-HCl (pH 8.0). Assay buffer (79 μL), elastase solution (75 μg/mL in assay buffer, 5 μL) and various concentrations of 1 and 2 (1 μL, dissolved in DMSO) were pre-incubated for 15 min at room temperature in a microtiter plate. After this time, 15 μL of substrate solution (2 mM N-succinyl-Ala-Ala-Ala-p-nitroanilide in assay buffer) was added to each well and the reaction was followed by measuring the absorbance at 405 nm every 30 s. Inhibition of chymotrypsin was determined using the α-chymotrypsin from bovine pancreas (Sigma, C4129, 55 units/mg). The assay buffer was 50 mM Tris-HCl, 100 mM NaCl and 1 mM CaCl2 (pH 7.8). Assay buffer (39 μL), enzyme solution (100 μg/mL in assay buffer, 10 μL), and various concentrations of 1 and 2 (1 μL, dissolved in DMSO) were pre incubated for 30 min at room temperature before substrate solution (1.5 mM N-succinyl-Gly-Gly-Phe-p-nitroanilide in assay buffer) was added. The reaction was followed by measuring the absorbance at 405 nm every 30 s for 30 min. For each assay, enzyme activity of each well was calculated using the initial slope of each progress curve, expressed as a percentage of the slope of uninhibited reaction. All assays were carried out in triplicate at ambient temperature (T = 29 °C). […] Dose–response curve fitting was done using Xlfit Excel, MathlQ Version 2.2.2 (IDBS Ltd.).

[2] = target: T2, α-chymotrypsin from bovine pancreas (Bos taurus, UniProt P00766); assay: Chymotrypsin inhibition assay; format: biochemical; conditions: for IC50: α-chymotrypsin from bovine pancreas, substrate N-succinyl-Gly-Gly-Phe-p-nitroanilide, 30 min pre-incubation, triplicate, read-out: Serine protease inhibitory activity (IC50), Chymotrypsin
T2 construct: purchased Sigma C4129; host or cells: bovine pancreas
Experimental: as §1

[3] = target: T2, α-chymotrypsin from bovine pancreas; conditions: cited from earlier work

T1 sequence (P00772 27-266): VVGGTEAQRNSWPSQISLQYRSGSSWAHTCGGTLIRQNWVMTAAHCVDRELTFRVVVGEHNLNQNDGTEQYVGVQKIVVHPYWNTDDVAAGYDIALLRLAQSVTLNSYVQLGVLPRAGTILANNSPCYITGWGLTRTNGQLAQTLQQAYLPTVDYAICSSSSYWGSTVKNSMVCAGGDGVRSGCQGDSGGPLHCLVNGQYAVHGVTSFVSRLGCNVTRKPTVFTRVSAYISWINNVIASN

Row | Compound | IC50 [1] [nM] | IC50 [2] [nM] | chymotrypsin inhibition, previously reported [3] | fold reduced activity against elastase ([1]; relative to largamide D (2)) [fold] | fold reduced activity against chymotrypsin ([2]; relative to largamide D (2)) [fold]
1 | CC(C)C[C@@H]1NC(=O)[C@@H](NC(=O)[C@@H](NC(=O)[C@H](C)NC(=O)[C@H](CCCc2ccc(O)cc2)NC(=O)[C@H](O)CO)C(C)C)[C@@H](C)OC(=O)[C@H](C(C)C)NC(=O)[C@H](Cc2ccc(O)c(Br)c2)N(C)C(=O)[C@H]([C@@H](C)O)N2C(=O)[C@H](CC[C@H]2O)NC1=O [Largamide D (2), largamide D] | 45 ± 3 | 83 ± 8 | moderate chymotrypsin inhibitor | – | –
2 | CC(C)CC1NC(=O)C(NC(=O)C(NC(=O)C(C)NC(=O)C(CCCc2ccc(O)cc2)NC(=O)C(O)CO)C(C)C)C(C)OC(=O)C(C(C)C)NC(=O)C(Cc2ccc(O)c(Br)c2)N(C)C(=O)C2C(C)OC3CCC(NC1=O)C(=O)N32 (stereo not shown) [Largamide D oxazolidine (1), largamide D oxazolidine] | 1520 ± 80 | 928 ± 93 | – | 33 | 11
